Test results reported in ChEMBL document CHEMBL1201862, “PubChem BioAssay data set” (2004).
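Grown in 96-well plates, cells were treated for 48 hours with each compound at five concentrations. Insufficient inhibition: endpoint recorded as highest concentration tested. The concentration for 50% growth inhibition is given as GI50.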 Activity calls are given as the source filed them. Cut-off read from the data, not from the text of the source: active = GI50 up to about 1.1 µM and inactive = higher.

Key:
Test in all cases: NCI anticancer screen, dose series, 48 h
BT-549 = system: BT-549
HCC 2998 = system: HCC 2998
HOP-62 = system: HOP-62
KM12 = system: KM12
LOX IMVI = system: LOX IMVI
M14 = system: M14
MCF7 = system: MCF7
MDA-MB-231 = system: MDA-MB-231
MDA-N = system: MDA-N
Malme-3M = system: Malme-3M
NCI-H226 = system: NCI-H226
NCI-H522 = system: NCI-H522
OVCAR-3 = system: OVCAR-3
OVCAR-8 = system: OVCAR-8
PC-3 = system: PC-3
RPMI-8226 = system: RPMI-8226
SF-295 = system: SF-295
SK-MEL-28 = system: SK-MEL-28
TK-10 = system: TK-10
UACC-62 = system: UACC-62

Measured: GI50

O=C1Oc2ccc([N+](=O)[O-])cc2N/C1=C\C(=O)c1ccccc1
inactive: BT-549 > 100 µM | HCC 2998 28.1 µM | HOP-62 > 100 µM | KM12 55.1 µM | LOX IMVI > 100 µM | M14 > 100 µM | MCF7 > 100 µM | MDA-MB-231 51.8 µM | MDA-N > 100 µM | Malme-3M > 100 µM | NCI-H226 > 100 µM | NCI-H522 76.2 µM | OVCAR-3 > 100 µM | OVCAR-8 > 100 µM | PC-3 72.4 µM | RPMI-8226 > 100 µM | SF-295 > 100 µM | SK-MEL-28 > 100 µM | TK-10 25.1 µM | UACC-62 > 100 µM

Oc1ccccc1-c1nn2c(CCCCCCCCc3nnc4sc(-c5ccccc5O)nn34)nnc2s1
inactive: BT-549 24.2 µM | HCC 2998 27.2 µM | HOP-62 8.71 µM | KM12 21 µM | LOX IMVI 9.46 µM | M14 11.2 µM | MCF7 11.1 µM | MDA-MB-231 17.3 µM | MDA-N 4.58 µM | Malme-3M 35 µM | NCI-H226 > 48.9 µM | NCI-H522 13.9 µM | OVCAR-3 14.4 µM | OVCAR-8 18.7 µM | PC-3 26.5 µM | RPMI-8226 11.1 µM | SF-295 9.98 µM | SK-MEL-28 24.6 µM | TK-10 37.2 µM | UACC-62 7.06 µM

[N-]=[N+]=Nc1c(C=O)c(=O)n2c3c(cccc13)CCC2
inactive: BT-549 2.65 µM | HCC 2998 16.9 µM | HOP-62 18 µM | KM12 17.5 µM | LOX IMVI 10.3 µM | M14 1.95 µM | MCF7 2.75 µM | MDA-MB-231 11.3 µM | MDA-N 5.81 µM | Malme-3M 1.84 µM | NCI-H226 11.9 µM | NCI-H522 2.13 µM | OVCAR-3 2.28 µM | OVCAR-8 3.03 µM | PC-3 12.1 µM | RPMI-8226 2.87 µM | SF-295 25.9 µM | SK-MEL-28 11.5 µM | TK-10 4.74 µM | UACC-62 12.8 µM

CN1CC=C(c2cccn2C)CC1
inactive: BT-549 > 100 µM | HCC 2998 > 100 µM | HOP-62 > 100 µM | KM12 > 100 µM | LOX IMVI > 100 µM | M14 > 100 µM | MCF7 > 100 µM | MDA-MB-231 > 100 µM | MDA-N > 100 µM | Malme-3M > 100 µM | NCI-H226 > 100 µM | NCI-H522 > 100 µM | OVCAR-3 > 100 µM | OVCAR-8 > 100 µM | PC-3 > 100 µM | RPMI-8226 > 100 µM | SF-295 > 100 µM | SK-MEL-28 > 100 µM | TK-10 > 100 µM | UACC-62 > 100 µM

CCCCOP(C)(=O)C(NC(=O)OCC)(C(F)(F)F)C(F)(F)F (stereo not given)
inactive: BT-549 > 100 µM | HCC 2998 > 100 µM | HOP-62 > 100 µM | KM12 > 100 µM | LOX IMVI > 100 µM | M14 > 100 µM | MCF7 > 100 µM | MDA-MB-231 > 100 µM | MDA-N > 100 µM | Malme-3M > 100 µM | NCI-H226 > 100 µM | NCI-H522 65.8 µM | OVCAR-3 > 100 µM | OVCAR-8 > 100 µM | PC-3 > 100 µM | RPMI-8226 > 100 µM | SF-295 > 100 µM | SK-MEL-28 > 100 µM | TK-10 > 100 µM | UACC-62 > 100 µM
